PubChem BioAssay AID1324 (NMMLSC, 2008)
Activity calls are given as the source filed them. No rule for the calls is given here.

These molecules were tested against glutathione S-transferase (GST-GSH binding) (assay: GST–glutathione interaction disruption – biochemical, multiplex beads, flow cytometry, HPSMTB buffer, profiling panel (AID 1324;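 also: glutathione beads loaded with GST-green fluorescent protein and no fluorescent Bim peptide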)). Conditions: multiplex bead flow cytometry, MCF.
For `COc1cccc(/C=N/Nc2nn3cnnc3c3ccccc23)c1`, the EC50 was 7.28 µM. In the case of `CC1=CC(=O)c2c(O)ccc(O)c2C1=O`, the EC50 is reported as “inactive”. With `COC(=O)c1sc2nc[nH]c(=O)c2c1C` the EC50 was “inactive”. With `COc1ccccc1Nc1nc(-c2c(C)nc3ncccn23)cs1` the EC50 was “inactive”. `CN(C)c1ncc(C2=C(Cl)C(=O)C(N3CCCC3)=C(Cl)C2=O)s1` gave an EC50 of 8.83 µM. With `COc1cc2[nH]c(=S)nc(NCC3CCCO3)c2cc1OC` (stereo not drawn) the EC50 was “inactive”. `O=C(Nc1ccc2nc(-c3ccco3)c(-c3ccco3)nc2c1)N1CCCCCC1` was tested, and the EC50 was “inactive”. For `CN1CCN(c2ccc(N)cc2)CC1`, the EC50 was “inactive”.

Same assay, conditions: multiplex bead flow cytometry, MCF, stronger effect = higher value, concentration not given here
For `CC1N(C)c2cccc3cccc(c23)N1C`, the percent span inhibition was “inactive”. `O=C(NCc1ccccn1)c1ccc2nc(-c3ccco3)c(-c3ccco3)nc2c1` was tested, and the percent span inhibition was “inactive”. In the case of `Fc1ccccc1/C=C1\CCCC2=C1NC(=S)NC2c1ccccc1F` (stereo not drawn), the percent span inhibition is reported as “inactive”. In the case of `CC(C(=O)Nc1ccc([N+](=O)[O-])cc1)N1CCN(C/C=C/c2ccccc2)CC1` (stereo not drawn), the percent span inhibition is reported as “inactive”. For `COc1ccc(S(=O)(=O)NCCOc2cccc3cccnc23)cc1OC`, the percent span inhibition was “inactive”. For `O=C(C1=NN(c2ccccc2)C2C(=O)N(c3ccccc3)C(=O)C12)c1ccccc1` (stereo not drawn), the percent span inhibition was “inactive”. `O=C(COC(=O)c1ccccn1)NC1CCCCC1` was tested, and the percent span inhibition was “inactive”. With `O=C(O)c1ccccc1NSc1ccccc1[N+](=O)[O-]` the percent span inhibition was “inactive”. `Cc1cc(-c2nnc3n2N=C(c2ccc(-c4ccccc4)cc2)CS3)n[nH]1` was tested, and the percent span inhibition was “inactive”. `COc1cc(C2Nc3cccc4cccc(c34)N2)cc(OC)c1O` was tested, and the percent span inhibition was “inactive”. With `O=C(c1ccccc1NS(=O)(=O)c1ccc(Br)s1)N1CCCC1` the percent span inhibition was “inactive”. `CCOc1ccccc1NC(=O)CSc1nnc2ccc(-c3cccnc3)nn12` was tested, and the percent span inhibition was “inactive”. `COc1ccc(-c2csc(NC(=O)/C(N=Nc3ccccc3)=C(\C)O)n2)cc1` was tested, and the percent span inhibition was “inactive”. In the case of `Cc1ccccc1-c1nc(-c2ccc(NC(=O)c3ccc4c(c3)OCO4)cc2)no1`, the percent span inhibition is reported as “inactive”. With `O=C1c2ccccc2C(=O)c2cc(S(=O)(=O)Nc3ccccc3)ccc21` the percent span inhibition was “inactive”. In the case of `c1ccc(-c2nc(N3CCCCCC3)c3ccccc3n2)nc1`, the percent span inhibition is reported as “inactive”. For `Cc1nc2scc(-c3ccccc3)c2c(=O)n1N=C1C=CC(=O)C=C1`, the percent span inhibition was “inactive”. `CC(C)CN1C(=O)/C(=C/c2ccco2)NC1=S` was tested, and the percent span inhibition was “inactive”. In the case of `CCOC(=O)C1=C(CC)Nc2ccccc2N=C1NC(=O)c1ccc(S(=O)(=O)N2CCOCC2)cc1`, the percent span inhibition is reported as “inactive”. With `CC(C)(C)OC(=O)N1CCN(C(=O)[C@H](Cc2ccc(O)cc2)n2cc(CCO)nn2)CC1` the percent span inhibition was “inactive”. In the case of `CNc1ccc(Br)cc(C(=O)/C=C/c2cccc(OC)c2OC)c1=O`, the percent span inhibition is reported as “inactive”. `C/C(=N/NC(=O)c1cc(O)c(O)c(O)c1)c1ccc([N+](=O)[O-])cc1` was tested, and the percent span inhibition was “inactive”. With `CNc1ccc(Br)cc(C(=O)/C=C/c2ccc(OC)cc2OC)c1=O` the percent span inhibition was “inactive”. In the case of `O=C1NC(=O)C2(Cc3c(nc4ccccn4c3=O)N3CCCCCC32)C(=O)N1Cc1ccccc1` (stereo not drawn), the percent span inhibition is reported as “inactive”. With `O=C(Nc1nnc(COc2ccc(Cl)cc2)s1)c1ccco1` the percent span inhibition was “inactive”. In the case of `CCN1CCN(c2cc(C)c3cc(NC(=S)N4CCN(c5ccccc5)CC4)ccc3n2)CC1`, the percent span inhibition is reported as “inactive”. `Cn1c(N)c(C(=O)COC(=O)c2cncc(Br)c2)c(=O)n(C)c1=O` was tested, and the percent span inhibition was “inactive”. For `O=C(CNC(=O)c1ccco1)NCC(=O)OCc1ccccc1Br`, the percent span inhibition was “inactive”. For `COCCNC(=S)Nc1cc(OC)c(OC)cc1C#N`, the percent span inhibition was “inactive”. In the case of `CC(=O)Nc1ccc2nc(CN3CCN(CC(C)C)C(CCO)C3)ccc2c1` (stereo not drawn), the percent span inhibition is reported as “inactive”. With `Cc1cc(C)c2nc3nc(C)c(C)cc3c(N)c2c1` the percent span inhibition was “inactive”. For `CC(C)CNC(=O)c1cccc(NC(=O)c2ccc(Cl)c([N+](=O)[O-])c2)c1`, the percent span inhibition was “inactive”. In the case of `CN(C)c1ccc(C=C2C(=O)NC(=O)NC2=O)cc1[N+](=O)[O-]`, the percent span inhibition is reported as “inactive”. `Cc1ccccc1/C=N/Nc1ccnc2cc(Cl)ccc12` was tested, and the percent span inhibition was “inactive”. For `COc1ccc(OCCNC(=O)c2ccccc2OCC(=O)N2CCCCC2)cc1`, the percent span inhibition was “inactive”. In the case of `Cc1ccc(SCCC(=O)Nc2ccc(Br)c(C)c2)cc1`, the percent span inhibition is reported as “inactive”. With `CSc1nnc2c3cc(C)ccc3n(Cc3ccccc3)c2n1` the percent span inhibition was “inactive”. For `COc1c(C)cc(Br)cc1C(=O)Nc1ccc(S(N)(=O)=O)cc1`, the percent span inhibition was “inactive”. With `COC(=O)c1ccc(C)c(NC(=O)CCNC(=O)c2ccc([N+](=O)[O-])cc2)c1` the percent span inhibition was “inactive”. `O=C1/C(=C\c2ccc(-c3ccccc3Cl)o2)SC(=S)N1CC1CCCO1` (stereo not drawn) was tested, and the percent span inhibition was “inactive”. For `CCCn1c(C)cc(-c2csc(N)n2)c1C`, the percent span inhibition was “inactive”. For `CC(C)NS(=O)(=O)c1ccc(OCC(=O)Nc2ccc(F)cc2)cc1`, the percent span inhibition was “inactive”. With `COc1ccc(-n2c(SCC(=O)Nc3ccc(C(=O)O)cc3)nnc2-c2cccs2)cc1` the percent span inhibition was “inactive”. In the case of `OCCN1CCN(CCCc2c3c(cc4c2CCC4)CCC3)CC1`, the percent span inhibition is reported as “inactive”. `Cc1occc1C(=O)NNC(=S)NCc1ccccc1` was tested, and the percent span inhibition was “inactive”. `Cc1cc(-c2nnc(CCC(=O)NC(C)c3cccc4ccccc34)o2)no1` (stereo not drawn) was tested, and the percent span inhibition was “inactive”. In the case of `C#CCOCCOCCOCCNc1nc(N2CCN(C(=O)[C@H](CCCCN)n3cc(CCCC)nn3)CC2)nc(N2CCN(C(=O)[C@H](Cc3ccc(O)cc3)n3cc(CCO)nn3)CC2)n1`, the percent span inhibition is reported as “inactive”. With `O=C(NCc1ccccc1)C(=O)Nc1nc(C23CC4CC(CC(C4)C2)C3)cs1` the percent span inhibition was “inactive”. For `CN(Cc1ccccc1)C(=O)c1[nH]cnc1C(=O)N[C@@H](CCCCNC(=O)OC(C)(C)C)C(=O)OC(C)(C)C`, the percent span inhibition was “inactive”. With `Nc1ccc(Nc2nc(-c3ccncc3)cs2)cc1` the percent span inhibition was “inactive”. `CCCCC(=O)Nc1ccc(C(=O)N2CCC(C(=O)OCC)CC2)cc1` was tested, and the percent span inhibition was “inactive”. `O=C(c1ccccc1)c1ccc2nc(-c3ccco3)c(-c3ccco3)nc2c1` was tested, and the percent span inhibition was “inactive”. In the case of `CNc1ccc(Br)cc(C(=O)/C=C/c2cc(OC)ccc2OC)c1=O`, the percent span inhibition is reported as “inactive”. For `COc1ccccc1C1=Nc2cccc3cccc(c23)N1`, the percent span inhibition was “inactive”. For `CCOC(=O)c1nc(Nc2ccc(Nc3ccccc3)cc2)c2ccccc2n1`, the percent span inhibition was “inactive”. For `CCCn1c(SCC(=O)Nc2ccccc2-c2ccccc2)nnc1-c1ccoc1C`, the percent span inhibition was “inactive”. In the case of `CCOC(=O)/C(=C\c1cccc(O)c1)c1nc2sc(C)c(C)c2c(=O)[nH]1`, the percent span inhibition is reported as “inactive”. In the case of `COc1ccc(NC(=O)c2cccs2)cc1`, the percent span inhibition is reported as “inactive”. With `CN1C(=O)/C(=C/c2ccc(-c3ccccc3[N+](=O)[O-])o2)SC1=Nc1ccc(Cl)c(C(=O)O)c1` the percent span inhibition was “inactive”. `Cc1ccc(/C=C/C2=Cc3c(sc(NC(=O)CSc4n[nH]c(N)n4)c3C#N)C(C)(C)C2)o1` was tested, and the percent span inhibition was “inactive”. With `C/C(=C\c1ccco1)C1Nc2cccc3cccc(c23)N1` the percent span inhibition was “inactive”. `Cc1ccc2c(C)c(C(=O)Nc3nnc(C)s3)oc2c1` was tested, and the percent span inhibition was “inactive”. With `CCOc1cc(CNc2ccc(N3CCCCC3)cc2)cc(Br)c1OCC(=O)NC(C)(C)C` the percent span inhibition was “inactive”. With `Cc1ccc(-n2c(CSc3nc(C)cc(C)n3)nnc2SCC(=O)NCc2ccco2)cc1` the percent span inhibition was “inactive”. In the case of `Cc1cccc(C(=O)N2CCC(c3nc(-c4ccc(S(=O)(=O)N5CCOCC5)cc4)no3)CC2)c1`, the percent span inhibition is reported as “inactive”. With `COc1cc2[nH]c(=S)nc(NCCCOC(C)C)c2cc1OC` the percent span inhibition was “inactive”. In the case of `CCSc1nnc(NC(=O)c2c(-c3ccccc3Cl)noc2C)s1`, the percent span inhibition is reported as “inactive”. For `COC(=O)CSc1ncnc2c1sc1nc(-c3ccco3)c3c(c12)CC(C)(C)OC3`, the percent span inhibition was “inactive”. `Cc1cc(Cl)c(S(=O)(=O)NCC2CCCO2)cc1OCC(N)=O` (stereo not drawn) was tested, and the percent span inhibition was “inactive”. In the case of `CC(C)n1nnnc1SCC(=O)N1CCN(C(=O)c2ccco2)CC1`, the percent span inhibition is reported as “inactive”. For `Cc1ccc(-c2nc(N3CCOCC3)s[n+]2-c2ccccc2)cc1`, the percent span inhibition was “inactive”. `CCn1c(C)c(/C=N/Nc2nc3ccccc3s2)c2ccccc21` was tested, and the percent span inhibition was “inactive”. `CC1CC2=C(NC(=S)NC2c2cccc(F)c2)/C(=C/c2cccc(F)c2)C1` (stereo not drawn) was tested, and the percent span inhibition was “inactive”. In the case of `CN1C2C=C3C(C#N)=C(N)C(C#N)(C#N)[C@@H](c4ccsc4)[C@@H]3C1CC2` (stereo partly drawn), the percent span inhibition is reported as “inactive”. With `CCOc1ccc(C(=O)Nc2nnc(NC(=S)Nc3ccccc3)s2)cc1` the percent span inhibition was “inactive”. `CNC(=O)CC1C(=O)N(Cc2ccccc2)C(=S)N1NC(=O)c1cccc(F)c1` (stereo not drawn) was tested, and the percent span inhibition was “inactive”. With `O=C1C=C(Nc2ccccc2)C(=O)c2ccccc21` the percent span inhibition was “inactive”. For `COc1cc(/C=N/NC(=O)c2ccc([N+](=O)[O-])cc2Cl)cc(Br)c1O`, the percent span inhibition was “inactive”. With `CCOC(=O)c1c(NC(C)=O)sc2c(O)c(Br)cc(Br)c12` the percent span inhibition was “inactive”. `Cc1cc(C)c(S(=O)(=O)/N=C2/C=C(SCC(=O)O)C(=O)c3ccccc32)cc1C` was tested, and the percent span inhibition was “inactive”. For `CCc1cccc(NC(=O)COc2ccccc2)c1`, the percent span inhibition was “inactive”. With `Cc1ccc(-c2nc3c(c(=O)[nH]c(=O)n3Cc3ccccc3)n2C)o1` the percent span inhibition was “inactive”. `CCN1C(=O)/C(=C/C=C2\C=CN(CC)c3ccccc32)SC1=S` was tested, and the percent span inhibition was “inactive”. In the case of `Cc1nc(NC(=O)CC(C)C)sc1-c1csc(Nc2ccc(Cl)cc2)n1`, the percent span inhibition is reported as “inactive”. `CC(C)C(=O)NC(c1ccccc1)c1cc([N+](=O)[O-])c2cccnc2c1O` (stereo not drawn) was tested, and the percent span inhibition was “inactive”. With `Fc1ccc(C2=Nc3cccc4cccc(c34)N2)cc1` the percent span inhibition was “inactive”. For `CCN(CC)c1nc(N)nc(N(c2ccccc2)c2ccccc2)n1`, the percent span inhibition was “inactive”. For `Oc1ccc(C=NCC2COc3ccccc3O2)cc1` (stereo not drawn), the percent span inhibition was “inactive”. For `CC1C=CCC2C(=O)N(c3ccc(OC(=O)c4cccs4)cc3)C(=O)C12` (stereo not drawn), the percent span inhibition was “inactive”. `Cc1cccc(Nc2nc(-c3ccncc3)cs2)c1` was tested, and the percent span inhibition was “inactive”.
